The source of these data is patent US20180282323A1, “Mesoionic imidazole derivatives as insecticides” (BAYER CROPSCIENCE AKTIENGESELLSCHAFT, priority 2015, published 2018).

Molecules are shown by their SMILES. Read-outs that look alike come from different tables or passages of the source.

Data set [1] deals with Meloidogyne incognita. Put plainly: Meloidogyne incognita test. The data set is classed as in vivo. The conditions noted are these: application rate 20 ppm, formation of galls on lettuce after 14 days. The protocol: Meloidogyne incognita Test Solvent: 125.0 parts by weight of acetone
To produce a suitable preparation of active ingredient, 1 part by weight of active ingredient is mixed with the stated amount of solvent and the concentrate is diluted with water to the desired concentration.
Vessels are filled with sand, active ingredient solution, an egg/larvae suspension of the southern root-knot nematode (Meloidogyne incognita) and lettuce seeds. The lettuce seeds germinate and the plants develop. The galls develop on the roots.
After 14 days, the nematicidal efficacy in % is determined by the formation of galls. 100% means that no galls were found; 0% means that the number of galls on the treated plants corresponds to the untreated control.

Data set [2] can be described thus: log P by HPLC on reversed-phase column (EEC directive 79/831 Annex V.A8). Type of data set: physicochemical. The following applies: for log p a): HPLC on reversed-phase column; for log p: HPLC on reversed-phase column (footnote a). In outline: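 Determined per EEC directive 79/831 Annex V.A8 by HPLC on a reversed-phase C18 column at 43° C.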
The test system of data set [3] is Phaedon cochleariae. In words: Phaedon cochleariae spray test. Type of data set: in vivo. The conditions noted are these: application rate 500 g/ha, Chinese cabbage leaf discs, larvae, after 7 days. The protocol:
Phaedon cochleariae—Spray Test Solvent: 78.0 parts by weight of acetone • • 1.5 parts by weight of dimethylformamide Emulsifier: alkylaryl polyglycol ether
(§1) To produce a suitable active ingredient formulation, 1 part by weight of active ingredient is dissolved with the stated parts by weight of solvent and made up with water containing an emulsifier concentration of 1000 ppm until the desired concentration is attained. To produce further test concentrations, the formulation is diluted with emulsifier-containing water.
Discs of Chinese cabbage leaves (Brassica pekinensis) are sprayed with an active ingredient formulation of the desired concentration and, after drying, populated with larvae of the mustard beetle (Phaedon cochleariae).
After 7 days, the efficacy in % is determined. 100% means that all the beetle larvae have been killed; 0% means that no beetle larvae have been killed.

Data set [4] relates to Myzus persicae. In words: Myzus persicae oral test. Type of data set: in vivo. The following applies: application rate 20 ppm, oral uptake through parafilm, after 5 days; for pest or weed control at 20 ppm: Myzus persicae, 120 h, read-out: efficacy. In outline: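 Compound dissolved in acetone, diluted with water, then mixed into IPL41 insect medium with sugar in microtitre plates under parafilm. Mixed-population green peach aphids fed through the membrane; % mortality scored after 5 days (100% = all killed).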

Data set [5] relates to Diabrotica balteata. In words: Diabrotica balteata spray test. The following applies: application rate 160 μg/well, wheat grains with beetle larvae, after 7 days. Type of data set: in vivo. In outline: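 Compound in acetone/DMF with emulsifier water sprayed onto wheat seedlings germinated one day on agar, 5 grains per well. Each well then infested with 10-20 Diabrotica balteata larvae. Efficacy scored after 7 days: 100% = plant growth as uninfected control, 0% = no plants grown.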

Data set [6] concerns Tetranychus urticae. Put plainly: Tetranychus urticae spray test, OP-resistant. The following applies: application rate 500 g/ha, bean leaf discs, all stages, after 6 days. The data set is classed as in vivo. The protocol: Tetranychus urticae—Spray Test, OP-Resistant Solvent: 78.0 parts by weight of acetone • • 1.5 parts by weight of dimethylformamide Emulsifier: alkylaryl polyglycol ether
as §1
Discs of bean leaves (Phaseolus vulgaris) infested with all stages of the greenhouse red spider mite (Tetranychus urticae) are sprayed with an active ingredient formulation of the desired concentration.
After 6 days, the efficacy in % is determined. 100% means that all the spider mites have been killed; 0% means that no spider mites have been killed.

The test system of data set [7] is Musca domestica. In words: Musca domestica test. The data set is classed as in vivo. The following applies: application rate 100 ppm, adult houseflies, after 2 days. As for the experimental part: Musca domestica Test Solvent: dimethyl sulphoxide
(§2) To produce a suitable active ingredient formulation, 10 mg of active ingredient are mixed with 0.5 ml of dimethyl sulphoxide, and the concentrate is diluted with water to the desired concentration.
Vessels containing a sponge treated with sugar solution and the active ingredient formulation of the desired concentration are populated with 10 adult houseflies (Musca domestica).
After 2 days, the kill in % is determined. 100% means that all of the flies have been killed; 0% means that none of the flies have been killed.

The subject of data set [8] is Ctenocephalides felis. Put plainly: Ctenocephalides felis in vitro contact test with adult cat fleas. Type of data set: in vivo. The conditions noted are these: application rate 5 μg/cm^2, after 48 h, adult cat fleas dead or moribund. As for the experimental part: Ctenocephalides felis—In Vitro Contact Tests with Adult Cat Fleas
For the coating of the test tubes, 9 mg of active ingredient are first dissolved in 1 ml of acetone p.a. and then diluted to the desired concentration with acetone p.a. 250 μl of the solution are distributed homogeneously on the inner walls and the base of a 25 ml test tube by turning and rocking on an orbital shaker (rocking rotation at 30 rpm for 2 h). With 900 ppm of active ingredient solution and internal surface area 44.7 cm^2, given homogeneous distribution, an area-based dose of 5 μg/cm^2 is achieved.
After the solvent has evaporated off, the tubes are populated with 5-10 adult cat fleas (Ctenocephalides felis), sealed with a perforated plastic lid and incubated in a horizontal position at room temperature and ambient humidity. After 48 h, efficacy is determined. To this end, the test tubes are stood upright and the fleas are knocked to the base of the tube. Fleas which remain motionless at the base or move in an uncoordinated manner are considered to be dead or moribund.
100% efficacy means that all the fleas were dead or moribund. 0% efficacy means that no fleas were harmed.

The test system of data set [9] is Lucilia cuprina. Put plainly: Lucilia cuprina test. The data set is classed as in vivo. The conditions noted are these: application rate 100 ppm, L1 larvae, after 2 days. As for the experimental part:
Lucilia cuprina Test Solvent: dimethyl sulphoxide
as §2
About 20 L1 larvae of the Australian sheep blowfly (Lucilia cuprina) are transferred into a test vessel containing minced horsemeat and the active ingredient formulation of the desired concentration.
After 2 days, the kill in % is determined. 100% means that all the larvae have been killed; 0% means that no larvae have been killed.

Data set [10] deals with Myzus persicae. In words: Myzus persicae spray test (bell pepper plants). Type of data set: in vivo. The conditions noted are these: application rate 100 ppm, after 6 days. As for the experimental part: Myzus persicae—Spray Test Solvent: 14 parts by weight of dimethylformamide Emulsifier: alkylaryl polyglycol ether
To produce a suitable active ingredient formulation, 1 part by weight of active ingredient is dissolved with the stated parts by weight of solvent and made up with water containing an emulsifier concentration of 1000 ppm until the desired concentration is attained. To produce further test concentrations, the formulation is diluted with emulsifier-containing water. If the addition of ammonium salts or/and penetrants is required, these are each added in a concentration of 1000 ppm to the formulation solution.
Bell pepper plants (Capsicum annuum) severely infested with the green peach aphid (Myzus persicae) are treated by spraying with the active ingredient formulation in the desired concentration.
After 6 days, the kill in % is determined. 100% means that all of the aphids have been killed; 0% means that none of the aphids have been killed.

Data set [11] concerns Boophilus microplus. Put plainly: Boophilus microplus injection test. The data set is classed as in vivo. The following applies: application rate 20 μg/animal, assessed after 7 days by laying of fertile eggs. As for the experimental part:
Boophilus microplus—Injection Test Solvent: dimethyl sulphoxide
To produce a suitable active ingredient formulation, 10 mg of active ingredient are mixed with 0.5 ml of solvent and the concentrate is diluted with solvent to the desired concentration.
1 μl of the active ingredient solution is injected into the abdomen of 5 engorged adult female cattle ticks (Boophilus microplus). The animals are transferred into dishes and kept in a climate-controlled room.
Efficacy is assessed after 7 days by laying of fertile eggs. Eggs which are not visibly fertile are stored in a climate-controlled cabinet until the larvae hatch after about 42 days. An efficacy of 100% means that none of the ticks has laid any fertile eggs; 0% means that all the eggs are fertile.

Data set [12] relates to Myzus persicae. In words: Myzus persicae spray test (Chinese cabbage leaf discs). Type of data set: in vivo. The following applies: application rate 500 g/ha, after 6 days. In outline: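 Active ingredient was formulated in acetone/DMF and diluted with water containing 1000 ppm emulsifier. Chinese cabbage leaf discs infested with all aphid stages were sprayed, and % kill was scored after 6 days (100% = all aphids dead).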

Molecule `Cc1ccc[n+]2c(C(=O)Nc3c(Cl)cccc3Cl)c([O-])n(Cc3cnc(Cl)s3)c12` [Example I-1-277] had a nematicidal efficacy in data set [1] of 90%. In data set [2], the “log p a)” value stood at 3.11. Besides, the efficacy in [3] stood at 83%; in [4], 100%; in data set [5], 100%.
Turning to `O=C(COc1ccccc1)c1c([O-])n(Cc2cnc(Cl)s2)c2cccc[n+]12` [Example I-1-017], the log p in [2] was determined as 2.34. Further, the efficacy in [6] is 90%; in [4], 100%.
As to `CCCOCC(=O)c1c([O-])n(Cc2cnc(Cl)s2)c2cccc[n+]12` [Example I-1-033], the “efficacy (kill in %)” value turned out to be 100% in data set [7], 90% in data set [9] and 100% in data set [10]. Besides, the log p in data set [2] amounted to 1.92. The efficacy in data set [8] worked out at 90%; in data set [4], 100%; in [11], 80%; in [5], 100%.
Molecule `COc1cnn(CC(=O)c2c([O-])n(Cc3cnc(Cl)s3)c3c(C)ccc[n+]23)c1` [Example I-1-094] showed a log p in data set [2] of 1.75. In data set [3], this molecule gave an efficacy of 100%.
For `CCOCC(=O)c1c([O-])n(Cc2cnc(Cl)s2)c2c(C)ccc[n+]12` [Example I-1-083], in data set [2], the log p was 1.72. In addition, the efficacy in data set [3] worked out at 100%; in data set [4], 100%; in [12], 90%; in [5], 100%.
For `CSCC(=O)c1c([O-])n(Cc2cnc(Cl)s2)c2cccc[n+]12` [Example I-1-034], the figures for the “efficacy (kill in %)” value in data set [7] and in data set [9] were 80% and 100%, respectively. Further, the log p in data set [2] was 1.73. The efficacy in data set [4] worked out at 100%; in data set [12] it was 90%; in [11], 80%; in data set [5] it was 100%.
`COCC(=O)c1c([O-])n(Cc2cnc(Cl)s2)c2c(C)ccc[n+]12` [Example I-1-082] yielded a log p in data set [2] of 1.46. The efficacy in data set [8], in [3], in data set [4], in data set [12] and in [5] was 100% in each case.
`COC(=O)c1c([O-])n(C(C)c2cnc(Cl)s2)c2cccc[n+]12` (centres unmarked) [Example I-1-262]: the “log p a)” value in [2] was found to be 1.45. For the same molecule, the efficacy in data set [3] is on record as 83%.
`O=C(NC1CC1)c1c([O-])n(Cc2cnc(Cl)s2)c2cccc[n+]12` [Example I-1-111, 1-[(2-Chloro-1,3-thiazol-5-yl)methyl]-3-(cyclopropylcarbamoyl)-1H-imidazo[1,2-a]pyridin-4-ium-2-olate]: the “efficacy (kill in %)” value in data set [7] and in [9] was 100% throughout. Also, the chromatographic logP in data set [2] and in data set [2] (pH 2.7) was 1.63 in each case. Besides, the efficacy in [8], in data set [12] and in data set [5] was 100% each time. Besides, the pest or weed control at 20 ppm in [4] is 100%.
Regarding `COCC(=O)c1c([O-])n(Cc2cnc(Cl)s2)c2cccc[n+]12` [Example I-1-008, 1-[(2-Chloro-1,3-thiazol-5-yl)methyl]-3-(methoxyacetyl)-1H-imidazo[1,2-a]pyridin-4-ium-2-olate], the “efficacy (kill in %)” value in data set [7] came to 100%; in [9], 90%. Also, the chromatographic logP in data set [2] and in [2] (pH 2.7) was 1.23 in each case. In addition, the pest or weed control at 20 ppm in data set [4] was 100%. In addition, the efficacy in [12], in data set [11] and in [5] was 100% each time.
As to `Cc1ccc[n+]2c(C(=O)Cn3ccc(Cl)n3)c([O-])n(Cc3cnc(Cl)s3)c12` [Example I-1-093], the log p in data set [2] amounted to 2.23. For the same molecule, the efficacy in data set [3] and in data set [4] was 100% throughout.
`O=C(CCl)c1c([O-])n(Cc2cncnc2)c2cccc[n+]12` [Example I-1-019] had a log p in data set [2] of 0.77. In [6], this molecule registered an efficacy of 90%.
With `O=C(NC1CC1)c1c([O-])n(Cc2ccc(Cl)nc2)c2cccc[n+]12` [Example I-1-154], the log p in data set [2] is 1.59. The “efficacy (kill in %)” value amounted to 95% in [9] and 100% in data set [10]. The efficacy in [3] came to 100%; in [4] it was 100%; in [5], 80%.
For `CCOCC(=O)c1c([O-])n(Cc2cnc(Cl)s2)c2cccc[n+]12` [Example I-1-032], the entries for the “efficacy (kill in %)” value in [7], in [9] and in data set [10] were 100%, 90% and 100%, respectively. Further, the log p in data set [2] was found to be 1.57. Further, the efficacy in [8], in data set [4] and in data set [5] was 100% in each case.
With `CCCOCC(=O)c1c([O-])n(Cc2cnc(Cl)s2)c2c(C)ccc[n+]12` [Example I-1-097], the log p in data set [2] was determined as 2.11. Also, the efficacy in data set [3] is listed as 100%; in data set [4], 100%; in data set [12], 90%; in data set [5] it was 100%.
